Results as given in article PMC4158172 (European Journal of Clinical Pharmacology, 2014).
Read-outs that look alike come from different tables or passages of the source.

Experiments:
[1] = EFV product label, cited from earlier work
[2] = EFV plasma pharmacokinetics when co-administered with DTG, by CYP2B6 genotype; settings: for AUC / Cmax / concentration at 24 h / Tmax / half-life: human; for AUC: AUC(0–τ); for Cmax: C max; for concentration at 24 h: C τ; for Tmax: T max; for half-life: t½
Experimental: This was a phase I, open-label, single-sequence, two-period, steady-state study. Subjects received DTG at a dose of 50 mg (two 25 mg tablets) every 24 hours (q24h) for 5 days (period 1), and then the combination of morning DTG 50 mg and evening EFV 600 mg q24h was given for 14 days (period 2). There was no washout between treatment periods. All doses were administered in the fasting state. Serial PK plasma samples were collected after each period for DTG, and samples after period 2 were also collected for EFV. The metabolic profile of DTG was evaluated in plasma and urine using pooled samples for each subject to assist in establishing the mechanism of any potential drug interaction (see Supplementary Material).
Dolutegravir and EFV were measured in plasma samples using validated methods, which consisted of extraction from plasma by protein precipitation with acetonitrile containing [^15N^2H7]dolutegravir or [^2H4]-efavirenz as the internal standards, respectively. The plasma extracts were injected onto a 2.1 × 50 mm 3.5-micron XBridge™ C18 column (Waters Associates, Milford, MA, USA). Dolutegravir was eluted with a mobile phase consisting of 40 % acetonitrile in aqueous 0.1 % formic acid, and EFV was eluted with a mobile phase consisting of acetonitrile/0.1 % formic acid (65 % v/v) in a 5-mM ammonium acetate buffer containing 0.1 % acetic acid (35 % v/v). The eluates were detected by using a Sciex API 4000™ (AB Sciex, Framingham, MA, USA) equipped with a TurboIonSpray® ionisation source with multiple reaction monitoring (DTG positive ion mode m/z 420 > 277; internal standard m/z 428 > 277; EFV negative ion mode m/z 314 > 243; internal standard m/z 318 > 247). Data acquisition and processing were performed with Analyst 1.4.2 software (AB Sciex), and linear regression analysis calculations were performed using the Study Management System, SMS™ 2000 v.2.2 (GlaxoSmithKline, Research Triangle Park, NC, USA). The calibration range for DTG was 0.020 to 20 μg/mL and for EFV was 0.10 to 20 μg/mL. Quality control samples prepared separately at three concentrations were stored with study samples and analysed with each batch of samples against separately prepared calibration standards.
A non-compartmental PK analysis of the concentration-time data was performed with WinNonlin (version 5.2, Pharsight Corporation, Mountain View, CA, USA). Plasma PK parameters for both DTG and EFV were calculated using actual recorded times for each treatment. Parameters that were determined included AUC from time zero to the end of the dosage interval (AUC(0–τ)), maximum observed plasma concentration (C max), the time of maximum observed plasma concentration (T max) and plasma concentration at the end of the dosing interval (C τ).
A blood sample was taken from 9 of 12 subjects in the EFV study who gave consent for pharmacogenetic analysis, and genomic DNA was extracted. Twenty-three polymorphisms from five genes/gene regions previously implicated in EFV metabolism were genotyped (Table 1). Only polymorphisms possibly conferring reduced enzyme activity were investigated. Due to the small number of samples available, no statistical modelling was planned or performed. However, the probabilities for each possible experimental outcome, based on the distribution of polymorphism carrier status between cases and controls and an assumption of no genetic association, were calculated a priori.

[3] = parameters: method as in PMID 18769354; settings: EVG 200 mg once daily with TPV/r 500/200 mg twice daily, healthy subjects; cited from earlier work
[4] = Plasma metabolic profile of DTG (pooled plasma); format: in vivo, human; settings: pooled plasma, both treatment groups
Experimental: (§1) There was no washout between treatment periods. All doses were administered in the fasting state.
(§2) Urine samples were collected at intervals of 0 to 12 hours and 12 to 24 hours after each treatment period. Individual urine pools were produced for each subject in a given treatment group by combining proportional volumes (% of total volume) from the 0- to 12-hours and 12- to 24-hours collections. Individual pooled human plasma samples were prepared for each subject and treatment group.
Each pooled plasma sample was mixed with aqueous EDTA disodium salt solution (10 mg/mL) and subsequently extracted 3 times with methanol and acetonitrile. Pooled urine samples were lyophilised and the residue was reconstituted in water:methanol (90:10 v/v). Drug-related components in plasma extracts and urine samples were separated on a 100 × 4.6 mm 3.5-micron Symmetry C18 column (Waters Associates) at 40°C by a step-gradient elution method with a mobile phase composition of water:acetonitrile containing 0.1% ammonium acetate starting at 95:5 (v/v) and ending at 5:95 (v/v) over 50 minutes. The eluate was analysed by multistage mass spectrometry (MSn) using an LTQ Orbitrap™ Hybrid Mass Spectrometer with Xcalibur 2.07 software (Thermo Fisher Scientific, Bremen, Germany). […]

[5] = Urinary metabolic profile of DTG (pooled urine); format: in vivo, human; settings: pooled urine 0-24 h, n=12, mean (standard deviation)
Experimental: as §1, §2
Each pooled plasma sample was mixed with aqueous EDTA disodium salt solution (10 mg/mL) and subsequently extracted 3 times with methanol and acetonitrile. Pooled urine samples were lyophilised and the residue was reconstituted in water:methanol (90:10 v/v). Drug-related components in plasma extracts and urine samples were separated on a 100 × 4.6 mm 3.5-micron Symmetry C18 column (Waters Associates) at 40°C by a step-gradient elution method with a mobile phase composition of water:acetonitrile containing 0.1% ammonium acetate starting at 95:5 (v/v) and ending at 5:95 (v/v) over 50 minutes. The eluate was analysed by multistage mass spectrometry (MSn) using an LTQ Orbitrap™ Hybrid Mass Spectrometer with Xcalibur 2.07 software (Thermo Fisher Scientific, Bremen, Germany). Data-dependent scanning using an accurate mass list, consisting of all previously characterised metabolites, was used in addition to analysis of pre-dose samples to aid in the distinction of drug-related material from endogenous components.

[6] = with TPV/r; cited from earlier work
[7] = in vivo; cited from earlier work
[8] = Safety evaluations, interaction study with TPV/r; format: in vivo, human
Experimental: In both studies, safety evaluations [adverse event (AE) reporting, clinical chemistry laboratory tests, urinalysis, vital signs and electrocardiogram] were performed throughout the study. Given the known hepatotoxicity profile of TPV/r, more frequent monitoring of liver chemistries was performed in the TPV/r study, and conservative stopping criteria were employed such that any subject reaching a grade 2 increase in alanine aminotransferase (ALT) or aspartate aminotransferase (AST) was discontinued from the trial. Both trials were conducted as inpatient studies with subjects housed in the unit for the duration of the study. The studies were conducted in accordance with the principles of the Declaration of Helsinki. A written informed consent was obtained from all subjects, and both protocols were approved by the institutional review board of the study sites.

CYP3A4/5 = settings: in vivo, cited from earlier work
[9] = in vivo, EFV with DTG, CYP2B6*1/*1 or *1/*6 subjects n=6, geometric mean (CV%)
[10] = in vivo, EFV with DTG, CYP2B6*6/*6 subjects n=3, geometric mean (CV%)
[11] = in vivo, EFV with DTG, all subjects n=12, geometric mean (CV%)

For O=C1Nc2ccc(Cl)cc2[C@@](C#CC2CC2)(C(F)(F)F)O1 [EFV, efavirenz], the “mean C max” value [1] is given as 4070 ng/mL, the Cmax ([1]; read-out: mean C max) is given as 12.9 µM and the “C τ” value ([2]; EFV with DTG, CYP2B6*1/*1 or *1/*6 subjects n=6, geometric mean (CV%)) is given as 1.45 (40) μg/mL. It also gave an AUC [2, 9] of 55700 ng·h/mL, an AUC [2, 10] of 174000 ng·h/mL and an AUC [2, 11] of 84200 ng·h/mL. It also gave a Cmax ([2]; in vivo, EFV 600 mg q24h with DTG 50 mg, all subjects n=12, geometric mean (CV%)) of 6020 ng/mL, a Cmax [2, 9] of 4520 ng/mL and a Cmax [2, 10] of 9500 ng/mL. For the same molecule, the concentration at 24 h [2, 10] was 5850 ng/mL, the concentration at 24 h [2, 11] was 2410 ng/mL and the Tmax ([2]; in vivo, EFV with DTG, CYP2B6*1/*1 or *1/*6 subjects n=6, median (range)) was 2.5 h. For the same molecule, the Tmax ([2]; in vivo, EFV with DTG, CYP2B6*6/*6 subjects n=3, median (range)) was 2 h, the Tmax ([2]; in vivo, EFV with DTG, all subjects n=12, median (range)) was 2.5 h and the half-life [2, 9] was 15.6 h. For the same molecule, the half-life [2, 10] was 39.1 h, the half-life [2, 11] was 22.2 h and the “EFV exposures in CYP2B6*6 homozygous subjects relative to CYP2B6*1/*1 or *1/*6 carriers” value ([2]; in vivo) was “two- to fourfold higher”.

In the case of COc1cc2c(cc1Cc1cccc(Cl)c1F)c(=O)c(C(=O)O)cn2[C@H](CO)C(C)C [EVG, Elvitegravir], the “changes in PK” value [3] is listed as “No significant changes”.

In the case of C[C@@H]1CCO[C@H]2Cn3cc(C(=O)NCc4ccc(F)cc4F)c(=O)c(O[C@@H]4O[C@H](C(=O)O)[C@@H](O)[C@H](O)[C@H]4O)c3C(=O)N12 [M2], the “amount in plasma relative to DTG (mean)” value [4] is reported as < 2 % of DTG, the “% DTG” value ([5]; DTG 50 mg + EFV q24h) is reported as 1,633 (607) % and the “% Total drug-related response” value ([5]; DTG 50 mg + EFV q24h) is reported as 79.8 (9.3) %. For the same molecule, the “% DTG” value ([5]; DTG 50 mg q24h) was 1,188 (275) % and the “% Total drug-related response” value ([5]; DTG 50 mg q24h) was 72.8 (10.9) %.

For C[C@@H]1CCO[C@H]2Cn3cc(C(=O)NC(O)c4ccc(F)cc4F)c(=O)c(O)c3C(=O)N12 (stereo partly shown) [M3], the “% DTG” value ([5]; DTG 50 mg + EFV q24h) was 38.8 (48.6) %, the “% Total drug-related response” value ([5]; DTG 50 mg + EFV q24h) was 1.9 (2.4) % and the “% DTG” value ([5]; DTG 50 mg q24h) was 51.9 (57.3) %. The “% Total drug-related response” value ([5]; DTG 50 mg q24h) was 2.9 (2.6) %.

In the case of Cc1nnc(C(=O)NC(C)(C)c2nc(C(=O)NCc3ccc(F)cc3)c(O)c(=O)n2C)o1 [RAL, raltegravir], the “decrease of AUC(0–12)” value [6] is given as 24%.

In the case of CC(C)CN(C[C@@H](O)[C@H](Cc1ccccc1)NC(=O)O[C@H]1CCOC1)S(=O)(=O)c1ccc(N)cc1 [amprenavir], the “decrease of Cmin” value [7] is listed as 56%.

For CC(C)(C)NC(=O)[C@@H]1C[C@@H]2CCCC[C@@H]2CN1C[C@@H](O)[C@H](Cc1ccccc1)NC(=O)[C@H](CC(N)=O)NC(=O)c1ccc2ccccc2n1 [saquinavir], the “decrease of Cmin” value [7] is given as 80%.

For tipranavir/ritonavir [TPV/r], the subjects reporting nausea ([8]; healthy subjects n=18) was 22%, the subjects reporting vomiting ([8]; healthy subjects n=18) was 11% and the “subjects with grade 2 increases in AST” value ([8]; n=18, began during TPV/r alone (period 2)) was “Three”. The “subjects with grade 2 increases in ALT leading to discontinuation” value ([8]; n=18, began during TPV/r alone (period 2), considered related to TPV/r) was “Four”, the “effect on CYP3A4/5” value (CYP3A4/5; after a single dose) was “moderately inhibits” and the “effect on CYP3A4/5” value (CYP3A4/5; after repeated dosing) was “induces”.
